Source: patent publication US11849726B2, “Microbicidal composition” (Lanxess Corporation, priority 2016, dated 2023)

Columns and labels:
Type in all cases: cell-based
[1] = system: Aspergillus brasiliensis ATCC #16404; test: MIC / synergy index test in 96 well microtiter plates, mold; conditions: A. brasiliensis ATCC #16404, contact time 3 days, potato dextrose broth
Protocol: (§1) Phenoxyethanol and Dipropylene glycol phenyl ether were evaluated for synergy by determining the synergy index (S.I.) of the combination. Synergy index was calculated based on minimum inhibitory concentrations (MIC) of two antimicrobial compounds (A and B) alone and in combinations. The MIC test were run in accordance with the method described in U.S. Pat. No. 9,034,905. The tests organisms were Gram negative bacteria (Pseudomonas aeruginosa ATCC #15442), Gram positive bacteria (Staphylococcus aureus ATCC #6538), and yeast (Candida albicans ATCC #10231) and mold (Aspergillus brasiliensis ATCC #16404). Contact time for the bacteria was 24 and 48 hours, yeast was 48 and 72 hrs, and 3 and 7 days for mold. The test was carried out in 96 well microtiter plates.
(§2) SI is calculated as follows: Ca/CA+Cb/CB=Synergy Index (“SI”) Wherein: • CA=concentration of compound A in ppm, acting alone, which produced an end point (MIC of Compound A). • Ca=concentration of compound A in ppm, in the mixture, which produced an end point. • CB=concentration of compound B in ppm, acting alone, which produced an end point (MIC of Compound B). • Cb=concentration of compound B in ppm, in the mixture, which produced an end point.
(§3) When the sum of Ca/CA and Cb/CB is greater than one, antagonism is indicated.

[2] = system: Staphylococcus aureus ATCC #6538; test: MIC / synergy index test in 96 well microtiter plates, Gram positive bacteria; conditions: S. aureus ATCC #6538, contact time 24 hrs, 10% tryptic soy broth
Protocol: as §1, §2, §3

[3] = system: Candida albicans ATCC #10231; test: MIC / synergy index test in 96 well microtiter plates, yeast; conditions: C. albicans ATCC #10231, contact time 24 hrs, potato dextrose broth
Protocol: as §1, with “Contact time for the bacteria was 24 and 48 hours, yeast was 48 and 72 hrs, and 3 and 7 days for mold.” left out
as §2, §3

Row | SMILES | MIC of compound acting alone (CA / CB) [1] [ppm AI] | MIC of compound acting alone (CA / CB) [2] [ppm AI] | MIC of compound acting alone (CA / CB) [3] [ppm AI]
1 | CC(CO)OCC(C)Oc1ccccc1 (stereo not drawn) [Dipropylene glycol phenyl ether] | 10000 | 19992 | 19992
2 | OCCOc1ccccc1 [Phenoxyethanol, 2-phenoxy-1-ethanol] | 3000 | 5000 | 5000
